Legend:
[1] = Dissolution rate test in deionized water (USP XXIII apparatus, UV 235 nm); format: physicochemical; details: for % of active principle passed in solution after 10 minutes: as stated in the text of the Examples; for % by weight of the active principle passed in solution: 30 mg active principle in 1000 ml deionized water, 37°C, 100 rpm
Description: The dissolution rate test is carried out in a dissolving equipment according to United States Pharmacopeia 23 by using a volume of deionized water of 1000 ml. The blade stirrer speed is of 100 rpm and the temperature is 37±0.5° C.
In a little glass vessel an exact amount of each sample is weighed so that it contains an amount of the active principle equal to 30 mg, which is directly introduced in the vessel containing the deionized water. At predetermined times, respectively of 5, 10, 15, 30, 45, 50, 60, 90 and 120 minutes from the beginning of the test, the amount of the nitroderivative compound passed in solution is determined, by measuring the concentration w/v (weigh/volume) thereof by UV spectrophotometry at the wave length of 235 nm, using a calibration line. The data are expressed as percentage of nitroderivative compound passed in solution in connection with the time. The amount of the compound of formula (I) passed in solution at the time of 10 minutes is at least about 10 times higher with respect to that of the nitroderivative compound not in amorphous form.
The dissolution rate of 3-(nitroxymethyl)phenyl ester of the acetylsalicylic acid as such and in the preparations containing it according to the examples described hereinafter, has been carried out in a dissolving equipment according to USP (United States Pharmacopeia) XXIII.
The test is carried out by using a volume of deionized water of 1000 ml. The angle rate of the blade stirrer is of 100 rpm and the temperature of 37±0.5° C.
In a little glass vessel an exact amount of each preparation to be tested is weighed so that it contains an amount of the active principle equal to 30 mg, which is directly introduced in the vessel. At predetermined times, respectively of 5, 10, 15, 30, 45, 50, 60, 90 and 120 minutes from the beginning of the test the amount of the compound passed in solution is determined, by measuring the concentration w/v thereof by UV spectrophotometry at the wave length of 235 nm, using a calibration line. The data are expressed as percentage of active principle passed in solution in connection with the time.

[2] = Crystallinity loss (amorphization degree) by DSC; format: physicochemical; details: result in words
Description: The amorphization degree can be measured by well known methods such as for example DSC, RX, IR, etc. […] The amorphization degree is determined by DSC as variation reduction) of the subtended area of the endothermic melting peak of the active principle. When the amorphization is complete, the melting peak characteristic of the active principle of formula (I) substantially disappears. This means that there is a variation of the enthalpy associated to the melting peak. The specific melting enthalpy ΔH (Joule/g) of the product as such and of the product treated with processes able to decrease the crystallinity (formulation) thereof, is determined by DSC analysis. The percent crystallinity loss is evaluated by the following equation: [formula] The scanning parameters adopted for the DSC analysis are the following: Scanning range: from 30° C. min. to 330° C. max Scanning rate: 10 K/min

Row | SMILES | % of active principle passed in solution after 10 minutes [1] [%] | % by weight of the active principle passed in solution ([1]; time 5 minutes, listed as Ex. 1) [% by weight] | % by weight of the active principle passed in solution ([1]; time 10 minutes, listed as Ex. 1) [% by weight] | % by weight of the active principle passed in solution ([1]; time 15 minutes, listed as Ex. 1) [% by weight] | % by weight of the active principle passed in solution ([1]; time 30 minutes, listed as Ex. 1) [% by weight] | % by weight of the active principle passed in solution ([1]; time 45 minutes, listed as Ex. 1) [% by weight] | % by weight of the active principle passed in solution ([1]; time 60 minutes, listed as Ex. 1) [% by weight] | % by weight of the active principle passed in solution ([1]; time 90 minutes, listed as Ex. 1) [% by weight] | % by weight of the active principle passed in solution ([1]; time 120 minutes, listed as Ex. 1) [% by weight] | crystalline state of the active principle by DSC analysis [2] | % by weight of the active principle passed in solution ([1]; time 0 minutes) [% by weight] | % by weight of the active principle passed in solution ([1]; time 5 minutes) [% by weight] | % by weight of the active principle passed in solution ([1]; time 10 minutes) [% by weight] | % by weight of the active principle passed in solution ([1]; time 15 minutes) [% by weight] | % by weight of the active principle passed in solution ([1]; time 30 minutes) [% by weight] | % by weight of the active principle passed in solution ([1]; time 45 minutes) [% by weight] | % by weight of the active principle passed in solution ([1]; time 60 minutes) [% by weight] | % by weight of the active principle passed in solution ([1]; time 90 minutes) [% by weight] | % by weight of the active principle passed in solution ([1]; time 120 minutes) [% by weight]
1 | CC(=O)Oc1ccccc1C(=O)Oc1cccc(CO[N+](=O)[O-])c1 [Example 1, 3-(nitroxymethyl)phenyl ester of the acetylsalicylic acid] | 0.3 | 0.1 | 0.3 | 0.4 | 0.8 | 1.2 | 1.6 | 2.4 | 3.1 | completely crystalline | – | – | – | – | – | – | – | – | –
2 | CC(=O)Oc1ccccc1C(=O)Oc1cccc(CO[N+](=O)[O-])c1 [Example 7, 3-(nitroxymethyl)phenyl ester of the acetylsalicylic acid] | 0.5 | – | – | – | – | – | – | – | – | completely crystalline form | 0.0 | 0.3 | 0.5 | 0.8 | 1.5 | 2.2 | 2.7 | 4.0 | 5.2

Source: patent US6753442B1, “Amorphous nitric esters and their pharmaceutical compositions” (Nicox S.A., priority 1999, dated 2004)
